Columns and labels:
[1] = tested on: KP4; assay: Cell viability assay (CellTiter Glo), pancreatic ductal adenocarcinoma KP4; format: cell-based, human; details: Homo sapiens, KP-4, 96 h, pancreatic cancer cell line KP4, 96 hours, CellTiter Glo; read-out: IC50 μM KP4
Procedure: (§1) Cell viability assay was performed to assess the potency of the compounds in human cancer cell lines KP4 (pancreatic ductal adenocarcinoma), MiaPaCa-2 (pancreatic carcinoma), AsPC-1 (pancreatic adenocarcinoma, ascites), 143B (osteosarcoma), and SJSA-1 (osteosarcoma). Selected compounds were also assayed in a human breast epithelial cell line MCF-10A, a nontumorigenic cell line as a control to assess differential activity. Cells at a density of 500-5,000 cells/well were seeded in 96-well plates and incubated at 37° C. overnight. A series of 9 different concentrations of compound stocks (500×) were created by 3-fold serial dilution in DMSO. These compounds were further diluted in culture media and then added to cells so that the final DMSO concentration was equal to 0.25% or less. After 96 hours of incubation, 50 μL of CellTiter Glo reagent (Promega) was added to each well and luminescence was measured after 10 minutes using EnVision (PerkinElmer). Compounds titrated from top concentration of up to 30 μM. The select compounds were tested initially from 30 μM as the top concentration in duplicates (range of 4.6 nM-30 μM). […] Luminescence from cells treated with DMSO alone was set as Max and % of inhibition was calculated as follows: Inhibition %=(Max-Sample value)/Max*100. Data was analyzed using XL-fit software (ID Business Solutions Ltd.). IC50, relative IC50, or % of top inhibition was calculated.
as §1, with “in” for “in human”, “line” for “lines”, “adenocarcinoma).” for “adenocarcinoma), MiaPaCa-2 (pancreatic carcinoma), AsPC-1 (pancreatic adenocarcinoma, ascites), 143B (osteosarcoma), and SJSA-1 (osteosarcoma). Selected compounds were also assayed in a human breast epithelial cell line MCF-10A, a nontumorigenic cell line as a control to assess differential activity.”, “1,000-10,000” for “500-5,000”, “All” for “Compounds titrated from top concentration of up to 30 μM. The select”
(§2) The results of the assay on stability in blood and IC50 values for pancreatic cancer cell line KP4 are given below in Table 24.

[2] = Whole blood stability, mouse; format: in vitro ADME
Description: as §2

[3] = Whole blood stability, human; format: in vitro ADME
Description: as §2

Compound | IC50 [1] [µM] | Whole Blood Stability % Remaining at 37° C. Mouse ([2]; 0 min) [%] | Whole Blood Stability % Remaining at 37° C. Mouse ([2]; 30 min) [%] | Whole Blood Stability % Remaining at 37° C. Mouse ([2]; 60 min) [%] | Whole Blood Stability % Remaining at 37° C. Human ([3]; 0 min) [%] | Whole Blood Stability % Remaining at 37° C. Human ([3]; 30 min) [%] | Whole Blood Stability % Remaining at 37° C. Human ([3]; 60 min) [%]
COC(=O)[C@H]1Cc2c([nH]c3ccccc23)[C@@H](c2ccc(C(=O)N3CCC(O)CC3)cc2)N1C(=O)CCl [Compound 32a] | > 1 | 100.0 | 0.0 | 0.0 | 100.0 | 1.9 | 0.9
COC(=O)[C@H]1Cc2c([nH]c3ccccc23)[C@H](c2ccc(C(=O)OC(C)(C)C)cc2)N1C(=O)C(C)Cl (stereo partly drawn) [Compound 33] | > 1 | 100.0 | 78.9 | 69.3 | 100.0 | 104.7 | 103.8
COC(=O)[C@H]1CC2c3ccccc3NC2[C@H](c2ccc(C(=O)OC(C)(C)C)cc2)N1C(=O)C(F)(F)Cl (stereo partly drawn) [Compound 34] | > 1 | 100.0 | 75.6 | 80.6 | 100.0 | 104.9 | 113.4
COC(=O)[C@H]1Cc2c([nH]c3ccccc23)[C@H](c2ccc(S(=O)(=O)N3CCC(O)CC3)cc2)N1C(=O)CCl [Compound 35] | 0.01 to 0.1 | 100.0 | 32.9 | 14.8 | 100.0 | 39.3 | 20.5
COC(=O)[C@H]1Cc2c([nH]c3ccccc23)[C@H](c2ccc(S(=O)(=O)N3CC(O)C3)cc2)N1C(=O)CCl [Compound 37] | 0.01 to 0.1 | 100.0 | 25.4 | 9.8 | 100.0 | 37.8 | 17.9
CN(C)C(=O)c1ccc([C@H]2c3[nH]c4ccccc4c3C[C@H](C(=O)N(C)C)N2C(=O)CCl)cc1 [Compound 38] | 0.5 to 1 | 100.0 | 72.9 | 62.0 | 100.0 | 46.2 | 28.5
CC(C)N(C(=O)[C@H]1Cc2c([nH]c3ccccc23)[C@H](c2ccc(C(=O)N(C)C)cc2)N1C(=O)CCl)C(C)C [Compound 39] | 0.1 to 0.5 | 100.0 | 73.2 | 60.4 | 100.0 | 64.5 | 50.4
COC(=O)C1CCC([C@H]2c3[nH]c4ccccc4c3C[C@H](C(=O)N(C)C)N2C(=O)CCl)CC1 (stereo partly drawn) [Compound 41] | 0.01 to 0.1 | 100.0 | 0.0 | 0.0 | 100.0 | 82.4 | 100.0
CN(C)C(=O)[C@H]1Cc2c([nH]c3ccccc23)[C@H](C2CCN(C(=O)OC(C)(C)C)CC2)N1C(=O)CCl [Compound 42] | > 1 | 100.0 | 72.9 | 62.0 | 100.0 | 46.2 | 28.5
CN(C)C(=O)[C@H]1Cc2c([nH]c3ccccc23)[C@H](c2ccc(C(=O)N3CCC(O)CC3)cc2)N1C(=O)CCl [Compound 45] | > 1 | 100.0 | 91.2 | 81.5 | 100.0 | 71.4 | 56.4
CN(C)C(=O)[C@H]1Cc2c([nH]c3ccccc23)[C@H](c2ccc(S(=O)(=O)N3CCC(O)CC3)cc2)N1C(=O)CCl [Compound 49] | > 1 | 100.0 | 82.5 | 52.5 | 100.0 | 43.0 | 13.7
COCCN(C(=O)c1ccc([C@H]2c3[nH]c4ccccc4c3C[C@H](C(=O)N(C)C)N2C(=O)CCl)cc1)C(C)(C)C [Compound 52] | 0.01 to 0.1 | 100.0 | 79.9 | 52.0 | 100.0 | 51.8 | 59.4
CN(C)C(=O)[C@H]1Cc2c([nH]c3ccccc23)[C@H](c2ccc(C(=O)N(CCC(=O)OC(C)(C)C)C(C)(C)C)cc2)N1C(=O)CCl [Compound 54] | 0.01 to 0.1 | 100.0 | 42.9 | 13.8 | 100.0 | 44.9 | 40.4
CN(C)C(=O)c1ccc([C@H]2c3sc4ccccc4c3C[C@H](C(=O)N(C)C)N2C(=O)CCl)cc1 [Compound 55] | 0.1 to 0.5 | 100.0 | 51.4 | 24.6 | 100.0 | 50.6 | 20.6
CN(C)C(=O)c1ccc([C@@H]2c3sc4ccccc4c3C[C@H](C(=O)N(C)C)N2C(=O)CCl)cc1 [Compound 55a] | 0.5 to 1 | 100.0 | 82.3 | 60.4 | 100.0 | 42.6 | 16.7
CN(C)C(=O)[C@H]1Cc2c([nH]c3ccccc23)[C@H](c2ccc(NC(=O)OC(C)(C)C)cc2)N1C(=O)CCl [Compound 56] | 0.01 to 0.1 | 100.0 | 84.1 | 38.9 | 100.0 | 59.3 | 60.7
CN(C)C(=O)c1ccc([C@H]2c3[nH]c4ccccc4c3C[C@H](C(N)=O)N2C(=O)CCl)cc1 [Compound 58] | > 1 | 100.0 | 89.9 | 67.0 | 100.0 | 64.4 | 40.5
CN(C)C(=O)[C@H]1Cc2c([nH]c3ccccc23)[C@H](c2ccc(S(C)(=O)=O)cc2)N1C(=O)CCl [Compound 59] | 0.1 to 0.5 | 100.0 | 97.9 | 65.6 | 100.0 | 48.9 | 51.5
